Legend:
TcCYP51 = conditions: formerly reported; cited from earlier work
[1] = tested on: T. cruzi intracellular amastigotes in H9c2 cells; experiment: Rate-of-Kill (RoK) high-content imaging assay, amastigotes per cell (AM/CELL) and curve descriptors; format: cell-based, Trypanosoma cruzi; design: key to ME_24h / ME_48h / ME_72h: % reduction in parasite burden (cidal response); t50pct_MCC50 / t50pct_Cmax: unit not given here; conditions: for ME_24h: 24h; for ME_48h: 48h; for ME_72h: 72h; for tlag_Cmax / t50pct_Cmax: at Cmax; for ME_24h (%): maximum effect at 24 h; for ME_24h (%) / ME_48h (%) / ME_72h (%): RoK assay; for ME_48h (%): maximum effect at 48 h; for ME_72h (%): maximum effect at 72 h; for ME 24h (maximum effect at 24 hours, intracellular amastigotes): maximum percentage of parasite burden reduction reached by any concentration
Outline: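 Readouts at each time point are amastigotes per cell and host nuclei count (cytotoxicity), from DRAQ5 high-content imaging. Infection: trypomastigotes on H9c2 at MOI 8 for 18 h. Dosing was 5 μM single point or 11 points, 1/3 steps from 50 μM. Effect scaled between 4 h infected and uninfected controls.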

In the case of `COc1ccc2ncc(=O)n(CCN3CCOC(CNCc4ccc(C(F)(F)F)cc4F)C3)c2n1` (stereo not drawn) [TCMDC-143384], the “CYP51 pIC50” value (TcCYP51) is given as 5, the ME_24h ([1]; figure 5) is given as -27.6403 and the ME_48h ([1]; figure 5) is given as -15.9254. For the same compound, the ME_72h ([1]; figure 5) was -18.8553, the “MCCE” value ([1]; RoK curve descriptor) was 0.6 µM and the “AM/CELL NORM” value ([1]; Time 4, sheet figure 4 A) was -15.3138. The “AM/CELL NORM” value ([1]; Time 24, sheet figure 4 A) was -27.6403, the “AM/CELL NORM” value ([1]; Time 48, sheet figure 4 A) was -15.9254 and the “AM/CELL NORM” value ([1]; Time 72, sheet figure 4 A) was -18.8553. The “tlag_Cmax” value [1] was 24.0 h, the t50pct_Cmax ([1]; figure 5) was 72 and the tlag_Cmax ([1]; figure 5) was 24. For the same compound, the t50pct_MCC50 ([1]; at MCC50, figure 5) was 72, the tlag_MCC50 ([1]; at MCC50, figure 5) was 72 and the MCC50 ([1]; figure 5) was 50 µM. For the same compound, the MCCE ([1]; figure 5) was 0.6173, the “ME_24h (%)” value [1] was -27.6% and the “ME_48h (%)” value [1] was -15.9%. For the same compound, the “ME_72h (%)” value [1] was -18.9% and the “ME 24h (maximum effect at 24 hours, intracellular amastigotes)” value (“ME 24h” below) [1] was -27.6403%.

In the case of `CS(=O)(=O)c1cccc(CNC(=O)c2cncc(N3CCN(c4ccc(F)cc4)CC3)c2)c1.O=C(O)C(F)(F)F.O=C(O)C(F)(F)F.O=C(O)C(F)(F)F` [TCMDC-143385], the “CYP51 pIC50” value (TcCYP51) is listed as 4.9, the ME_24h ([1]; figure 5) is listed as -140.527 and the ME_48h ([1]; figure 5) is listed as 14.5657. For the same compound, the ME_72h ([1]; figure 5) was 58.9567, the “MCC50” value ([1]; RoK curve descriptor) was 1.9 µM and the “MCCE” value ([1]; RoK curve descriptor) was 8.6 µM. The “AM/CELL NORM” value ([1]; Time 4, sheet figure 4 A) was -2.309, the “AM/CELL NORM” value ([1]; Time 24, sheet figure 4 A) was -204.359 and the “AM/CELL NORM” value ([1]; Time 48, sheet figure 4 A) was 18.8519. For the same compound, the “AM/CELL NORM” value ([1]; Time 72, sheet figure 4 A) was 47.2855, the “tlag_Cmax” value [1] was 24.0 h and the t50pct_Cmax ([1]; figure 5) was 72. The tlag_Cmax ([1]; figure 5) was 24, the “t50%_MCC50” value ([1]; at MCC50) was 72.0 h and the “tlag_MCC50” value ([1]; at MCC50) was 24.0 h. For the same compound, the t50pct_MCC50 ([1]; at MCC50, figure 5) was 72, the tlag_MCC50 ([1]; at MCC50, figure 5) was 48 and the MCCE ([1]; figure 5) was 8.642. For the same compound, the MCC50 ([1]; figure 5, in µM) was 25.9259, the “ME_24h (%)” value [1] was -140.5% and the “ME_48h (%)” value [1] was 14.6%. The “ME_72h (%)” value [1] was 59.0% and the “ME 24h” value [1] was -76.6949%.

In the case of `O[C@H]1CC[C@H](Nc2nccc(-c3sc(C4CCOCC4)nc3-c3ccc(F)c(F)c3)n2)CC1` [TCMDC-143387], the “CYP51 pIC50” value (TcCYP51) is given as under 4, the ME_24h ([1]; figure 5) is given as -7.952 and the ME_48h ([1]; figure 5) is given as -1.621. For the same compound, the ME_72h ([1]; figure 5) was 23.2073, the “MCCE” value ([1]; RoK curve descriptor) was 0.07 µM and the “AM/CELL NORM” value ([1]; Time 4, figure 4 A) was 2.207. For the same compound, the “AM/CELL NORM” value ([1]; Time 24, figure 4 A) was -7.952, the “AM/CELL NORM” value ([1]; Time 48, figure 4 A) was -3.462 and the “AM/CELL NORM” value ([1]; Time 72, figure 4 A) was 23.2073. The “tlag_Cmax” value [1] was 24.0 h, the t50pct_Cmax ([1]; figure 5) was 72 and the tlag_Cmax ([1]; figure 5) was 24. The t50pct_MCC50 ([1]; at MCC50, figure 5) was 72, the tlag_MCC50 ([1]; at MCC50, figure 5) was 72 and the MCC50 ([1]; figure 5) was 50 µM. For the same compound, the MCCE ([1]; figure 5) was 0.06859, the “ME_24h (%)” value [1] was -8.0% and the “ME_48h (%)” value [1] was -1.6%. The “ME_72h (%)” value [1] was 23.2% and the “ME 24h” value [1] was -7.952%.

In the case of `O=C(O)C(F)(F)F.O=c1oc2ccccc2n1C1CCN(Cc2ccccc2-c2cccnc2)CC1` [TCMDC-143389], the “CYP51 pIC50” value (TcCYP51) is listed as 7, the ME_24h ([1]; figure 5) is listed as -205.37 and the ME_48h ([1]; figure 5) is listed as -40.6003. The ME_72h ([1]; figure 5) was 54.0373, the “MCC50” value ([1]; RoK curve descriptor) was 5.6 µM and the “MCCE” value ([1]; RoK curve descriptor) was 0.2 µM. For the same compound, the “AM/CELL NORM” value ([1]; Time 4, sheet figure 4 A) was -7.014, the “AM/CELL NORM” value ([1]; Time 24, sheet figure 4 A) was -205.37 and the “AM/CELL NORM” value ([1]; Time 48, sheet figure 4 A) was -40.6003. For the same compound, the “AM/CELL NORM” value ([1]; Time 72, sheet figure 4 A) was 17.0901, the “tlag_Cmax” value [1] was 24.0 h and the t50pct_Cmax ([1]; figure 5) was 72. The tlag_Cmax ([1]; figure 5) was 24, the “t50%_MCC50” value ([1]; at MCC50) was 72.0 h and the “tlag_MCC50” value ([1]; at MCC50) was 24.0 h. It also gave a t50pct_MCC50 ([1]; at MCC50, figure 5) of 72, a tlag_MCC50 ([1]; at MCC50, figure 5) of 24 and an MCCE ([1]; figure 5) of 0.2058. For the same compound, the MCC50 ([1]; figure 5, in µM) was 5.556, the “ME_24h (%)” value [1] was -205.4% and the “ME_48h (%)” value [1] was -40.6%. For the same compound, the “ME_72h (%)” value [1] was 54.0% and the “ME 24h” value [1] was -205.37%.

In the case of `Cc1c(C(C)NC(=O)Nc2cccc(Cl)c2)sc2ncnn12` (stereo not drawn) [TCMDC-143405], the “CYP51 pIC50” value (TcCYP51) is given as 6.9, the ME_24h ([1]; figure 5) is given as -289.196 and the ME_48h ([1]; figure 5) is given as -32.4517. For the same compound, the ME_72h ([1]; figure 5) was 41.1216, the “MCCE” value ([1]; RoK curve descriptor) was 0.07 µM and the “AM/CELL NORM” value ([1]; Time 4, sheet figure 4 A) was -4.394. For the same compound, the “AM/CELL NORM” value ([1]; Time 24, sheet figure 4 A) was -289.196, the “AM/CELL NORM” value ([1]; Time 48, sheet figure 4 A) was -32.4517 and the “AM/CELL NORM” value ([1]; Time 72, sheet figure 4 A) was -0.1706. The “tlag_Cmax” value [1] was 24.0 h, the t50pct_Cmax ([1]; figure 5) was 72 and the tlag_Cmax ([1]; figure 5) was 24. For the same compound, the t50pct_MCC50 ([1]; at MCC50, figure 5) was 72, the tlag_MCC50 ([1]; at MCC50, figure 5) was 72 and the MCC50 ([1]; figure 5) was 50 µM. The MCCE ([1]; figure 5) was 0.06859, the “ME_24h (%)” value [1] was -289.2% and the “ME_48h (%)” value [1] was -32.5%. For the same compound, the “ME_72h (%)” value [1] was 41.1% and the “ME 24h” value [1] was -289.196%.

In the case of `O=C(c1cccc(Cl)c1Cl)N1CCn2c1nc(-c1ccncc1)cc2=O` [TCMDC-143409], the “CYP51 pIC50” value (TcCYP51) is given as 7.2, the ME_24h ([1]; figure 5) is given as -46.4941 and the ME_48h ([1]; figure 5) is given as -253.426. The ME_72h ([1]; figure 5) was 11.7221, the “MCCE” value ([1]; RoK curve descriptor) was 0.6 µM and the “AM/CELL NORM” value ([1]; Time 4, sheet figure 4 A) was 24.5196. The “AM/CELL NORM” value ([1]; Time 24, sheet figure 4 A) was -46.4941, the “AM/CELL NORM” value ([1]; Time 48, sheet figure 4 A) was -266.503 and the “AM/CELL NORM” value ([1]; Time 72, sheet figure 4 A) was -474.938. The “tlag_Cmax” value [1] was 72.0 h, the t50pct_Cmax ([1]; figure 5) was 72 and the tlag_Cmax ([1]; figure 5) was 72. The t50pct_MCC50 ([1]; at MCC50, figure 5) was 72, the tlag_MCC50 ([1]; at MCC50, figure 5) was 72 and the MCC50 ([1]; figure 5) was 50 µM. The MCCE ([1]; figure 5) was 0.6173, the “ME_24h (%)” value [1] was -46.5% and the “ME_48h (%)” value [1] was -253.4%. For the same compound, the “ME_72h (%)” value [1] was 11.7% and the “ME 24h” value [1] was -46.4941%.
